Data: the NIST ThermoML archive (doi:10.1021/je0499420)
± gives the expanded uncertainty stated by the source.

Columns and labels:
[1] = Liquid; for Critical pressure: Direct measurement; for Critical temperature: Visual observation in an unstirred cell
[2] = xn = mol fraction of the nth substance listed; conditions: Liquid

Row | Structure (SMILES) | Critical density [1] [kg/m3] | Critical pressure [1] [kPa] | Critical temperature [1] [K] | Critical density ([2]; x1 = 1) [kg/m3] | Critical density ([2]; x2 = 0) [kg/m3] | other results
1 | COC(F)(F)C(F)(F)F [methyl pentafluoroethyl ether] | 491 ± 11 | 2885 ± 12 | 406.82 ± 0.16 |  |  | 
2 | COC(F)(F)C(F)(F)F [methyl pentafluoroethyl ether] + FC(C(F)(F)F)C(F)(F)F |  |  |  | 491 ± 11 |  | Critical density ([2]; x1 = 0.1823): 584 ± 14 kg/m3; Critical density ([2]; x1 = 0.306): 558 ± 13 kg/m3; Critical density ([2]; x1 = 0.4769): 545 ± 13 kg/m3; Critical density ([2]; x1 = 0.6944): 531 ± 12 kg/m3; Critical density ([2]; x1 = 0.8132): 519 ± 12 kg/m3
3 | FC(C(F)(F)F)C(F)(F)F [1,1,1,2,3,3,3-heptafluoropropane] + COC(F)(F)C(F)(F)F |  |  |  |  | 598 ± 14 | 
4 | FC(F)C(F)C(F)(F)F (stereo not drawn) [1,1,1,2,3,3-hexafluoropropane] + COC(F)(F)C(F)(F)F |  |  |  |  | 562 ± 13 | Critical density ([2]; x2 = 0.1546): 550 ± 13 kg/m3; Critical density ([2]; x2 = 0.3124): 535 ± 12 kg/m3; Critical density ([2]; x2 = 0.4485): 534 ± 12 kg/m3; Critical density ([2]; x2 = 0.6388): 520 ± 12 kg/m3; Critical density ([2]; x2 = 0.7888): 506 ± 12 kg/m3
5 | COC(F)(F)C(F)(F)F [methyl pentafluoroethyl ether] + FC(F)C(F)C(F)(F)F |  |  |  | 491 ± 11 |  | 
6 | FCC(F)(F)F [1,1,1,2-tetrafluoroethane] + COC(F)(F)C(F)(F)F |  |  |  |  | 508 ± 12 | 
7 | COC(F)(F)C(F)(F)F [methyl pentafluoroethyl ether] + FCC(F)(F)F |  |  |  | 491 ± 11 |  | Critical density ([2]; x1 = 0.1167): 508 ± 12 kg/m3; Critical density ([2]; x1 = 0.2446): 512 ± 12 kg/m3; Critical density ([2]; x1 = 0.4299): 509 ± 12 kg/m3; Critical density ([2]; x1 = 0.5886): 506 ± 12 kg/m3; Critical density ([2]; x1 = 0.7674): 503 ± 12 kg/m3
8 | FC(F)C(F)(F)F [pentafluoroethane] | 560 ± 13 | 3617 ± 12 | 339.2 ± 0.16 |  |  | 
9 | FC(F)C(F)C(F)(F)F (stereo not drawn) [1,1,1,2,3,3-hexafluoropropane] | 562 ± 13 | 3416 ± 12 | 412.41 ± 0.16 |  |  | 
10 | FCC(F)(F)F [1,1,1,2-tetrafluoroethane] | 508 ± 12 | 4053 ± 12 | 374.13 ± 0.16 |  |  | 
11 | FC(F)C(F)(F)F [pentafluoroethane] + COC(F)(F)C(F)(F)F |  |  |  |  | 560 ± 13 | 
12 | COC(F)(F)C(F)(F)F [methyl pentafluoroethyl ether] + FC(F)C(F)(F)F |  |  |  | 491 ± 11 |  | Critical density ([2]; x1 = 0.1408): 551 ± 13 kg/m3; Critical density ([2]; x1 = 0.2438): 543 ± 13 kg/m3; Critical density ([2]; x1 = 0.4346): 540 ± 13 kg/m3; Critical density ([2]; x1 = 0.5897): 536 ± 12 kg/m3; Critical density ([2]; x1 = 0.7753): 521 ± 12 kg/m3
13 | FC(C(F)(F)F)C(F)(F)F [1,1,1,2,3,3,3-heptafluoropropane] | 598 ± 14 | 2930 ± 12 | 375 ± 0.16 |  |  | 
